Calls of active or inactive are those of the source.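 Rule for the calls: active = any mouse or rat spared a seizure in electric shock or chemically induced seizure tests, at any tested dose or timing; inactive = no animal spared a seizure in any test.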

This assay relates to mouse/rat MES, scMET, 6Hz seizure protection, qualitative. Put plainly: mouse and rat seizure model outcomes with toxicity – qualitative, MES, scMET, 6Hz, i.p. and oral, in vivo study, summary (AID 423).
On to `CC(=O)OCC[N+](C)(C)C`, for which the outcome is “active; inactive”. For `NC(=O)N1c2ccccc2C=Cc2ccccc21` the value was “active”; for `CCN(CC)CC(=O)Nc1c(C)cccc1C`, “active”; for `O=C1CC2OCC=C3CN4CCC56c7ccccc7N1C5C2C3CC46` (stereo not given), “active; inactive”. Take `CCCCC1C(=O)N(c2ccccc2)N(c2ccccc2)C1=O`: the outcome was “active; inactive”. With `CC(C)[N+](C)(CCOC(=O)C1c2ccccc2Oc2ccccc21)C(C)C`, the outcome is “active; inactive”. In the case of `CCC1(c2ccccc2)C(=O)NC(=O)NC1=O`, the result was active. As for `COC(=O)Nc1nc2ccc(C(=O)c3ccccc3)cc2[nH]1`, the outcome was “active; inactive”. In the case of `CCC1(C)CC(=O)NC1=O` (stereo not given), the outcome is “active; inactive”. With `O=C1CN=C(c2ccccc2Cl)c2cc([N+](=O)[O-])ccc2N1`, the result was active.
